Experiment [1] has as its target T1, PKA (Homo sapiens, UniProt P17612). The conditions noted are these: read-out: affinity for PKA; cited from earlier work.
The target of experiment [2] is T1, PKA. The conditions noted are these: 132 nM PKA, even at the highest ATP concentration applied.
Method: The effect of ATP on the PKA-PKI binding was also evaluated using an SPR analyzer, Biacore 3000 biosensor system (Biacore, U.S.A.). The surface of a CM5 sensor chip (Biacore, Applied Biosystems, U.S.A.) was activated with N-ethyl-N′-(3-dimethylaminopropyl)carbodiimide (EDC) and N-hydroxysuccinimide (NHS), and 50 μg/mL streptavidin was applied thereto, to immobilize on the surface of sensor via an amine-coupling method. […] The mixture solutions of 132 nM PKA and varying concentrations of ATP were applied at the rate of 30 μM/min for 100 seconds, and the buffer solution was then applied for 200 seconds, to obtain sensorgrams.

Where no end group is shown, it is not given here. The star is where a group is joined. Biotin = O=C1N[C@H]2[C@H](CS[C@H]2CCCCC(=O)*)N1

With Biotin-LRRAALG [biotin-Ala-kemptide], the Kd in experiment [1] was 10 µM. Besides, the “binding of PKA to immobilized peptide (SPR)” value in experiment [2] is “not observed”.

Values taken from patent US7582471B2, “Biosensor for the detection of protein kinase A, and kit comprising the same” (Korea Institute of Science and Technology, priority 2006, dated 2009).
